The values that follow come from PMC7594054, “Design, Synthesis and In Vitro Experimental Validation of Novel TRPV4 Antagonists Inspired by Labdane Diterpenes” (Marine Drugs, 2020).

For orientation: IC50 means the concentration that gives 50% inhibition. One may read the melting point as the temperature of the solid-liquid transition. By EC50 is commonly meant the concentration giving half of the maximal effect.

Molecules are shown by their SMILES. A value given as a limit tells only on which side of the number the result lay.

One data set addresses T1, rTRPV4 (Rattus norvegicus, UniProt Q9ERZ8).
T1 construct: expressed in transfected cells; host or cells: HEK-293
The data set is described as follows: TRPV4 calcium influx assay (Fluo-4) in HEK-293 cells overexpressing rat recombinant TRPV4. The format is cell-based. Conditions: for IC50: against the effect of GSK1016790A (10 nM) after a 5-min pre-incubation, read-out: IC50 inh. TRPV4; for Efficacy %: as percent of the effect of ionomycin (4 µM), HEK-293 cells overexpressing rTRPV4, means ± SEM, n >= 3. The text has this:
The interaction properties of all homodrimane-derived compounds 1–16, 18–19, and 22–25 with either TRPV type-4 or type-1 were studied in human embryonic kidney (HEK)-293 cells overexpressing either the rat recombinant type-4 (rTRPV4), which shares with the human orthologue ~95% of sequence identity, and the human recombinant type-1 (hTRPV1) channel, evaluating the changes in intracellular calcium levels. […] Cell fluorescence before and after the addition of various concentrations of test compounds was measured normalizing the effects against the response to ionomycin (4 μM). […] Dose-response curve fitting (sigmoidal dose-response variable slope) and parameter estimation were performed with Graph-Pad Prism8® (GraphPad Software Inc., San Diego, CA, USA). All determinations were performed at least in triplicate.

A further data set deals with T2, hTRPV1 (Homo sapiens, UniProt Q8NER1).
T2 construct: expressed in transfected cells; host or cells: HEK-293
T2 sequence (Q8NER1 whole entry): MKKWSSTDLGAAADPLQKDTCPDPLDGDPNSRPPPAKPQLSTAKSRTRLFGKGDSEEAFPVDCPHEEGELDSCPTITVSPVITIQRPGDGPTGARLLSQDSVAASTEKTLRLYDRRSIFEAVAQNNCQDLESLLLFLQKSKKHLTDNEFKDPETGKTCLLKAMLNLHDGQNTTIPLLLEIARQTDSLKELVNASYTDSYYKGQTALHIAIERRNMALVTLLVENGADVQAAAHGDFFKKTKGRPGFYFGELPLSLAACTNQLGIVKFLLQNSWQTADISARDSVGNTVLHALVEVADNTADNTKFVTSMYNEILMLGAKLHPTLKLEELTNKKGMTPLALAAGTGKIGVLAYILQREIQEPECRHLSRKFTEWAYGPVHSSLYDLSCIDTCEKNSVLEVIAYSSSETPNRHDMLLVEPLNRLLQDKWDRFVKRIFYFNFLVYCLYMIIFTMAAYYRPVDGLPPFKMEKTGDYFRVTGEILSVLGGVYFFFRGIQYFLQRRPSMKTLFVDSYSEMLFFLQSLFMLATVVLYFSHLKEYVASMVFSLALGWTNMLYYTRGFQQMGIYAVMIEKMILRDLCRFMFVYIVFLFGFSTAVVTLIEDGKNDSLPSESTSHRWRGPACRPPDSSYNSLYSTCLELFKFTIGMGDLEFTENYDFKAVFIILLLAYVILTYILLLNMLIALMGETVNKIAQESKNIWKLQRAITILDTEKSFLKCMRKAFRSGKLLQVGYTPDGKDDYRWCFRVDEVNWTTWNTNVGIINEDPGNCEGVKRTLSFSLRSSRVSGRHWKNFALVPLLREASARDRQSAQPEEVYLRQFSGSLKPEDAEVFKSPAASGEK
As to the kind of experiment: TRPV1 calcium influx assay (Fluo-4) in HEK-293 cells overexpressing human recombinant TRPV1. The format is cell-based. Conditions: for Efficacy %: as percent of the effect of ionomycin (4 µM), HEK-293 cells overexpressing hTRPV1, means ± SEM, N >= 3; for IC50: read-out: IC50 inh TRPV1.

In another data set the test system is HeLa cells. The data set is described as follows: MTT cytotoxicity assay, HeLa cells. Format: cell-based, human. Conditions: HeLa cells, 1, 5 and 25 μM, 24 h. As to the method:
(§1) HeLa and A549 cells were seeded at 2 × 10^3 cells/cm^2 density in 24-well plastic plates. One day after plating, compounds 6 and 18 were added to the culture medium for 24 h. Cell viability was evaluated with the 3-(4,5-dimethylthiazol-2-yl)-2,5-diphenyltetrazolium bromide (MTT; 0.5 mg/mL; Sigma-Aldrich, Milan, Italy) reduction assay, and formazan salt formation upon MTT reduction by the mitochondria of living cells was detected spectrophotometrically at 595 nm according to published procedures.
(§2) Figure 2 Cell viability measured in HeLa and A549 cells treated for 24 h with increasing concentration of compound 6 (panel A, C) and 18 (panel B, D). Bar graphs show cell viability measured using the 3-(4,5-dimethylthiazol-2-yl)-2,5-diphenyltetrazolium bromide (MTT) assay. Data are expressed as optical density (OD) at 595 nm, normalized to control (vehicle). The bar is the standard error of the mean (SEM) on 3 independent determinations. Statistically significant differences were accepted when the p-value was at least ≤0.05.
A general note: Tetrazolium dyes change colour on reduction, which living cells bring about.

The test system of the next data set is A549 cells. As to the kind of experiment: MTT cytotoxicity assay, A549 cells. Format: cell-based, human. Conditions: A549 cells, 1, 5 and 25 μM, 24 h. As to the method: as §1, §2
For another data set, the system named is TRPV4. Conditions: cited from earlier work.
The test system of the next data set is TRPV1. Details: method as in PMID 30507122. Conditions: cited from earlier work.

T1 sequence (Q9ERZ8 whole entry): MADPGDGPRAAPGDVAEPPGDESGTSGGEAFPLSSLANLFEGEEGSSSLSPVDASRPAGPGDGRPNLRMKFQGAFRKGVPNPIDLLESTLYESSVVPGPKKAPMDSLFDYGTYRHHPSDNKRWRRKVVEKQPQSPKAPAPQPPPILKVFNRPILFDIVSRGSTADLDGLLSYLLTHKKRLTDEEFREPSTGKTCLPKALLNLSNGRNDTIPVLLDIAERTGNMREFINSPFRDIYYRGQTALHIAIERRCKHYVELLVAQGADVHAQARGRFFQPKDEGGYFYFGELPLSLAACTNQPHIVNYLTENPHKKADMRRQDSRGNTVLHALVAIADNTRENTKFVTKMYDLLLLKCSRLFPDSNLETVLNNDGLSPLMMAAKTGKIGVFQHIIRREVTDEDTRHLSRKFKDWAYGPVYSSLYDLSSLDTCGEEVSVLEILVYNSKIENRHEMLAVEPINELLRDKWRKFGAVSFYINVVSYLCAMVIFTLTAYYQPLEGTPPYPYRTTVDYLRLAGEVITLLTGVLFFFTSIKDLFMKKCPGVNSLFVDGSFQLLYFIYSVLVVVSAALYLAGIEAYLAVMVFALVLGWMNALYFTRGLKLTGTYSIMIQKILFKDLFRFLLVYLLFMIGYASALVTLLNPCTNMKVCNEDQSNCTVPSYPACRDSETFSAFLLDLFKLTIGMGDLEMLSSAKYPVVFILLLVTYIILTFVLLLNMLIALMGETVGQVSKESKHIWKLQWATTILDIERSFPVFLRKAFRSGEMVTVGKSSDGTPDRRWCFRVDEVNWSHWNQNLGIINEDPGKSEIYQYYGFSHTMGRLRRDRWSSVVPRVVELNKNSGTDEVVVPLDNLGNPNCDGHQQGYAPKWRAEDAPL

Turning to `CC1(C)CCC[C@]2(C)[C@@H](CC(=O)NCc3ccc(Cl)c(Cl)c3)[C@](C)(O)CC[C@@H]12` [Compound 6, N-(3,4-dichlorobenzyl)-2-((1R,2R,4aS,8aS)-2-hydroxy-2,5,5,8a-tetramethyldecahydronaphthalen-1-yl)acetamide], the “activity on rTRPV4 in words” value at rTRPV4 was “potent and selective TRPV4 antagonists”. Besides, the 50% inhibitory concentration (IC50) is 5.3 ± 0.3 µM on rTRPV4 and over 100 µM at hTRPV1. The Efficacy % is under 10% on rTRPV4 and 16.9 ± 0.3% on hTRPV1. The “cytotoxic effect (cell viability, MTT)” value in the data set with HeLa cells and in the data set with A549 cells was “neither compound caused statistically-significant cytotoxic effects at any tested concentration” in each case.
With `CC1(C)CCC[C@]2(C)[C@@H](CCOC(=O)/C=C/c3ccc4c(c3)OCO4)[C@](C)(O)CC[C@@H]12` [Compound 23, 2-((1R,2R,4aS,8aS)-2-hydroxy-2,5,5,8a-tetramethyldecahydronaphthalen-1-yl)ethyl (E)-3-(benzo[d][1,3]dioxol-5-yl)acrylate], the melting point fell in the range of 115 to 116 °C. Further, at rTRPV4, the concentration for half-maximal inhibition (IC50) is over 100 µM and the Efficacy % is given as under 10%. In addition, the 50% inhibitory concentration (IC50) at hTRPV1 is over 100 µM.
As for `C=C1CC[C@@H]2[C@](C)(CO)[C@H](O)CC[C@@]2(C)[C@@H]1/C=C/C1=CC(C(C[C@@H]2C(=C)CC[C@@H]3[C@](C)(CO)[C@H](O)CC[C@]32C)C2=CCOC2=O)OC1=O` (some centres unmarked) [bisandrographolide A], the concentration giving a half-maximal response (EC50) with TRPV4 (read-out: EC50 (TRPV4 agonist)) was 0.79 to 0.95 µM.
For the compound `C/C=C(\C)[C@H]1C(C)=C[C@H]2C[C@@H](C)C[C@@H](C(=O)O)[C@@H]2[C@@]1(C)C(=O)c1cccnc1` [onydecalin A], the 50% inhibitory concentration (IC50) in the data set with TRPV4 (read-out: IC50 (TRPV4 antagonist)) is 45.9 µM. Also, the “activity towards TRPV1 in words” value in the data set on TRPV1 is “partial activity”.
For `CC1(C)CCC[C@]2(C)[C@@H](CC(=O)NCc3ccc(F)cc3)[C@](C)(O)CC[C@@H]12` [Compound 7, N-(4-fluorobenzyl)-2-((1R,2R,4aS,8aS)-2-hydroxy-2,5,5,8a-tetramethyldecahydronaphthalen-1-yl)acetamide], the melting point is 135 to 136 °C. For the same compound, the EC50 on rTRPV4 (activation, half-maximal increase in [Ca2+]i, NA = not active (efficacy lower than 10%), read-out: Potency EC50) was 13.4 ± 2.6 µM. In addition, at rTRPV4, the 50% inhibitory concentration (IC50) is 16.9 ± 0.8 µM and the Efficacy % is given as 15.8 ± 0.8%. The concentration for a half-maximal effect (EC50) on hTRPV1 (activation, NA = not active (efficacy lower than 10%), read-out: Potency EC50) stood at 9.9 ± 0.1 µM. Moreover, at hTRPV1, the Efficacy % was 24.5± 0.2% and the IC50 is over 50 µM.
For the compound `CC1(C)CCC[C@]2(C)[C@@H](CCOC(=O)c3ccc4c(c3)OCO4)[C@](C)(O)CC[C@@H]12` [Compound 22, 2-((1R,2R,4aS,8aS)-2-Hydroxy-2,5,5,8a-tetramethyldecahydronaphthalen-1-yl)ethyl Benzo[d][1,3]dioxole-5-carboxylate], the melting point was 155 to 156 °C. The Efficacy % on rTRPV4 was under 10%. Moreover, the IC50 on hTRPV1 was over 100 µM.
Consider `CC1(C)CCC[C@]2(C)[C@@H](CC(=O)OCc3ccccc3)[C@](C)(O)CC[C@@H]12` [Compound 18, Benzyl 2-((1R,2R,4aS,8aS)-2-hydroxy-2,5,5,8a-tetramethyldecahydronaphthalen-1-yl)acetate], for which, at rTRPV4, the “activity on rTRPV4 in words” value was “potent and selective TRPV4 antagonists”; the IC50 amounted to 5.41 ± 0.07 µM; the Efficacy % was under 10%. Moreover, in the data set with HeLa cells, the “cytotoxic effect (cell viability, MTT)” value is on record as “neither compound caused statistically-significant cytotoxic effects at any tested concentration”. Besides, the “cytotoxic effect (cell viability, MTT)” value in the data set on A549 cells was “neither compound caused statistically-significant cytotoxic effects at any tested concentration”.
